Laboratory results from US20200031778A1, “NOVEL 5-SUBSTITUTED IMIDAZOLYLMETHYL DERIVATIVES” (Bayer CropScience Aktiengesellschaft, priority 2016, published 2020).

Test: Log P by HPLC on reversed phase columns (EEC directive 79/831 Annex V.A8; methods [a], [b], [c])
Assay type: physicochemical
Conditions: not given
Description: Measurement of Log P values was performed according to EEC directive 79/831 Annex V.A8 by HPLC (High Performance Liquid Chromatography) on reversed phase columns with the following methods: • ^[a] Log P value is determined by measurement of LC-UV, in an acidic range, with 0.1% formic acid in water and acetonitrile as eluent (linear gradient from 10% acetonitrile to 95% acetonitrile). • ^[b] Log P value is determined by measurement of LC-UV, in a neutral range, with 0.001 molar ammonium acetate solution in water and acetonitrile as eluent (linear gradient from 10% acetonitrile to 95% acetonitrile). • ^[c] Log P value is determined by measurement of LC-UV, in an acidic range, with 0.1% phosphoric acid and acetonitrile as eluent (linear gradient from 10% acetonitrile to 95% acetonitrile).
If more than one Log P value is available within the same method, all the values are given and separated by “+”.
Calibration was done with straight-chain alkan2-ones (with 3 to 16 carbon atoms) with known Log P values (measurement of Log P values using retention times with linear interpolation between successive alkanones). Lambda-max-values were determined using UV-spectra from 200 nm to 400 nm and the peak values of the chromatographic signals.

SMILES	LogP
CC(O)(Cn1cncc1Cl)c1ccc(Oc2ccc(OC(F)(F)F)cc2)c(Br)c1 (centres unmarked) [I-157]	2.90^[a]
OC(Cn1cncc1F)c1cnc(Oc2ccc(C(F)(F)F)cc2)cc1Cl (centres unmarked) [I-126]	2.27^[a]
COC(Cn1cncc1C#N)c1ccc(Oc2ccc(Br)cc2)cc1F (centres unmarked) [I-55]	3.79^[a]
CC(C)(C)C(O)(Cn1cncc1C#N)c1ccc(Cl)cc1 (centres unmarked) [I-284]	2.74^[a]
N#Cc1cncn1CC(O)(c1cc(Cl)cc(Cl)c1F)C1(Cl)CC1 (centres unmarked) [I-609]	2.76^[a]
N#Cc1cncn1CC(O)(c1cc(F)ccc1Cl)C1(F)CC1 (centres unmarked) [I-439]	2.16^[a]
CC(C)(C)c1ccc(C(O)(Cn2cncc2C#N)C2(Cl)CC2)cc1 (centres unmarked) [I-247]	3.29^[a]
CC(C)C(O)(Cn1cncc1C#N)c1ccc(F)cc1F (centres unmarked) [I-419]	2.35^[a]
CCc1ccc(C#CC(O)(Cn2cncc2C#N)C2(Cl)CC2)cc1 (centres unmarked) [I-320]	3.11^[a]
CC(C)CC(O)(Cn1cncc1C#N)c1ccc(Cl)cc1 (centres unmarked) [I-285]	2.70^[a]
COC(Cn1cncc1C#N)c1ccc(Oc2ccccc2)cc1F (centres unmarked) [I-100]	3.23^[a]
N#Cc1cncn1CC(O)(c1cccc(Cl)c1F)C1(Cl)CC1 (centres unmarked) [I-553]	2.40^[a]
N#Cc1cncn1CC(O)(c1ccc(Br)cc1Cl)C1(Cl)CC1 (centres unmarked) [I-333]	2.73^[a]
N#Cc1cncn1CC(O)(c1ccc(F)cc1)C1(F)CC1 (centres unmarked) [I-351]	2.04^[a]
N#Cc1cncn1CC(O)(C#Cc1ccc(C(F)(F)F)cc1)C1(Cl)CC1 (centres unmarked) [I-350]	3.09^[a]
CC(O)(Cn1cncc1C#N)c1ccc(Oc2ccc(I)cc2)cc1Cl (centres unmarked) [I-202]	3.73^[a]
C=CC(C)C(O)(Cn1cncc1C#N)C1(F)CC1 (centres unmarked) [I-375]	1.94^[a]
OC(Cn1cncc1F)c1cnc(Oc2ccc(C(F)(F)F)cc2)cc1Br (centres unmarked) [I-122]	1.94^[a]
OC(Cn1cncc1F)c1ccc(Oc2ccc(Cl)cc2)nc1C(F)(F)F (centres unmarked) [I-123]	2.25^[a]
N#Cc1cncn1CC(O)c1ccc(Oc2ccc(S(F)(F)(F)(F)F)cc2)nc1C(F)(F)F (centres unmarked) [I-146]	3.35^[a]
OC(Cn1cncc1Cl)c1ccc(Oc2ccc(Cl)cc2)cc1F (centres unmarked) [I-32]	2.39^[a]
CC(O)(Cn1cncc1Br)c1ccc(Oc2ccc(I)cc2)cc1Br (centres unmarked) [I-186]	3.23^[a]

SMILES	LogP
OC(Cn1cncc1Cl)c1ccc(Oc2ccc(Cl)cc2)cc1C(F)(F)F (centres unmarked) [I-21]	2.86^[a]
N#Cc1cncn1CC(O)c1cnc(Oc2ccc(C(F)(F)F)cc2)cc1Br (centres unmarked) [I-130]	3.13^[a]
CC(C)(C)C(O)(Cn1cncc1C#N)c1cc(F)c(Cl)c(Cl)c1 (centres unmarked) [I-545]	3.31^[a]
OC(Cn1cncc1F)c1cnc(Oc2ccc(C(F)F)cc2)cc1C(F)(F)F (centres unmarked) [I-116]	2.11^[a]
OC(Cn1cncc1Cl)c1ccc(Oc2ccc(Cl)cn2)cc1C(F)(F)F (centres unmarked) [I-65]	2.21^[a]
N#Cc1cncn1CC(O)(c1ccc(F)c(F)c1F)C1(F)CC1 (centres unmarked) [I-634]	2.18^[a]
N#Cc1cncn1CC(O)(c1ccc(F)nc1F)C1(F)CC1 (centres unmarked) [I-551]	1.79^[a]
N#Cc1cncn1CC(O)(c1ccccc1C(F)(F)F)C1(F)CC1 (centres unmarked) [I-348]	2.28^[a]
CCCCC(O)(Cn1cncc1C#N)c1ccc(Cl)cc1Cl (centres unmarked) [I-261]	3.41^[a]
CC(=O)c1cncn1CC(C)(O)c1cnc(Oc2ccc(Cl)cc2)cc1C(F)(F)F (centres unmarked) [I-250]	2.78^[a]
CCC(C)C(O)(Cn1cncc1C#N)c1ccc(Cl)cc1 (single isomer, unassigned) [I-326]	2.78^[a]
OC(Cn1cncc1F)c1cnc(Oc2ccc(Cl)cc2)cc1C(F)(F)F (centres unmarked) [I-119]	2.23^[a]
N#Cc1cncn1CC(O)c1cnc(Oc2ccc(Cl)nc2)cc1C(F)(F)F (centres unmarked) [I-152]	2.32^[a]
N#Cc1cncn1CC(O)(c1ccc(Cl)cc1Br)C1(Cl)CC1 (centres unmarked) [I-384]	2.78^[a]
N#Cc1cncn1CC(O)(CCC1CCCCC1)C1(F)CC1 (centres unmarked) [I-662]	3.19^[a]
N#Cc1cncn1CC(O)(c1cc(F)cc(F)c1Cl)C1(F)CC1 (centres unmarked) [I-569]	2.26^[a]
CC(=O)c1cncn1CC(C)(O)c1cnc(Oc2ccc(C(F)(F)F)cc2)cc1Cl (centres unmarked) [I-246]	2.76^[a]
N#Cc1cncn1CC(O)(c1ccc(C(F)(F)F)cc1Br)C1(F)CC1 (centres unmarked) [I-435]	2.78^[a]
CC(C)C(O)(Cn1cncc1C#N)c1ccc(C(F)(F)F)cc1Cl (centres unmarked) [I-426]	3.11^[a]
CC(O)(Cn1cncc1C(F)(F)F)c1ccc(Oc2ccc(Cl)cc2)cc1F (centres unmarked) [I-205]	3.83^[a]
N#Cc1cncn1CC(O)(c1cc(F)c(F)cc1Cl)C1(F)CC1 (centres unmarked) [I-579]	2.32^[a]
OC(Cn1cncc1Cl)c1ccc(Oc2ccc(Cl)cc2)cc1Br (centres unmarked) [I-23]	2.54^[a]

SMILES	LogP
COC(Cn1cncc1Br)c1ccc(Oc2ccc(Cl)cc2)cc1Br (centres unmarked) [I-50]	3.59^[a]
C[Si](C)(C)C#CC(O)(Cn1cncc1C(F)(F)F)C1(Cl)CC1 (centres unmarked) [I-607]	3.52^[a]
N#Cc1cncn1CC(O)(c1cc(Cl)c(Cl)cc1Cl)C1(F)CC1 (centres unmarked) [I-576]	2.82^[a]
N#Cc1cncn1CC(O)(CC1CC1)c1cc(F)c(Cl)c(Cl)c1 (centres unmarked) [I-530]	2.97^[a]
CCCCC(O)(Cn1cncc1C#N)c1ccc(C(F)(F)F)cc1F (centres unmarked) [I-267]	3.35^[a]
CC(O)(Cn1cncc1Cl)c1ccc(Oc2ccc(Cl)cc2)cc1C(F)(F)F (centres unmarked) [I-168]	2.80^[a]
OC(Cn1cncc1F)(c1ccc(Br)cc1Cl)C1(F)CC1 (centres unmarked) [I-430]	1.76^[a]
COc1nc(Cl)ccc1C(O)(Cn1cncc1C#N)C1(Cl)CC1 (centres unmarked) [I-561]	2.51^[a]
N#Cc1cncn1CC(O)(C#CC1CC1)C1(F)CC1 (centres unmarked) [I-693]	1.74^[a]
N#Cc1cncn1CC(O)(CC1CC1)c1cc(Cl)cc(Br)c1 (centres unmarked) [I-531]	2.93^[a]
N#Cc1cncn1CC(O)(c1cc(F)cc(Br)c1)C1(F)CC1 (centres unmarked) [I-537]	2.51^[a]
COC(Cn1cncc1C#N)c1ccc(Oc2ccc(Br)cc2)cc1Br (centres unmarked) [I-63]	4.20^[a]
C[Si](C)(C)C#CC(O)(Cn1cncc1C#N)C1(F)CC1 (centres unmarked) [I-600]	2.45^[a]
CC(O)(Cn1cncc1Cl)c1ccc(Oc2ccc(Cl)cc2)nc1C(F)(F)F (centres unmarked) [I-180]	2.63^[a]
CC(C)(C)CC(O)(Cn1cncc1C#N)c1ccc(Cl)cc1 (centres unmarked) [I-223]	3.11^[a]
CCCCCCC(O)(CC1CC1)Cn1cncc1C#N (centres unmarked) [I-427]	3.35^[a]
OC(Cn1cncc1F)c1cnc(Oc2ccc(OC(F)(F)F)cc2)cc1C(F)(F)F (centres unmarked) [I-121]	2.42^[a]
O=C(Cn1cncc1F)c1ccc(Oc2ccc(Cl)cc2)nc1C(F)(F)F [IX-106]	2.59^[a]
CC(O)(Cn1cncc1Cl)c1ccc(Oc2ccc(I)cc2)cc1Br (centres unmarked) [I-187]	3.25^[a]
N#Cc1cncn1CC(O)(c1ccc(F)cc1)C1CC1 (centres unmarked) [I-411]	1.98^[a]
CCC(O)(Cn1cncc1C#N)c1ccc(Cl)cc1Cl (centres unmarked) [I-301]	2.66^[a]
N#Cc1cncn1CC(O)c1ccc(Oc2ccc(Cl)nc2)cc1Cl (centres unmarked) [I-43]	2.37^[a]

SMILES	LogP
OC(Cn1cncc1Cl)c1ccc(Oc2ccc(Br)nc2)cc1Cl (centres unmarked) [I-77]	1.92^[a]
N#Cc1cncn1CC(O)(CC1CC1)c1ccc(Br)cc1Br (centres unmarked) [I-429]	2.82^[a]
Cc1ccc(C(C)(O)Cn2cncc2C#N)cc1 (centres unmarked) [I-340]	1.75^[a]
N#Cc1cncn1CC(O)(CC1CC1)c1ccc(Cl)cc1F (centres unmarked) [I-442]	2.75^[a]
Cc1ccc(C)c(C#CC(O)(Cn2cncc2C#N)C2(Cl)CC2)c1 (centres unmarked) [I-298]	3.09^[a]
COc1ccc(C(O)(Cn2cncc2C#N)CC(C)(C)C)c(Cl)c1 (centres unmarked) [I-367]	3.21^[a]
N#Cc1cncn1CC(O)c1ccc(Oc2ccc(Cl)cn2)cc1C(F)(F)F (centres unmarked) [I-66]	2.75^[a]
CC(O)(Cn1cncc1Cl)c1ccc(Oc2ccc(C(F)(F)F)cc2)cc1C(F)(F)F (centres unmarked) [I-196]	3.01^[a]
N#Cc1cncn1CC(O)(CC1CC1)c1cc(Cl)ccc1F (centres unmarked) [I-516]	2.43^[a]
N#Cc1cncn1CC(O)(c1cc(Cl)c(Cl)cc1F)C1(Cl)CC1 (centres unmarked) [I-621]	2.80^[a]
CCCCC(O)(Cn1cncc1C#N)c1ccccc1Cl (centres unmarked) [I-282]	2.80^[a]
OC(Cn1cncc1Cl)c1ccc(Oc2ccc(Br)cn2)cc1Cl (centres unmarked) [I-79]	2.10^[a]
N#Cc1cncn1CC(O)(c1ccc(C(F)(F)F)cc1Cl)C1(Cl)CC1 (centres unmarked) [I-264]	2.80^[a]
N#Cc1cncn1CC(O)(c1ccc(Cl)c(Cl)c1F)C1(F)CC1 (centres unmarked) [I-638]	2.58^[a]
N#Cc1cncn1CC(O)(c1ccc(F)cc1F)C1CCCCC1 (centres unmarked) [I-481]	3.05^[a]
N#Cc1cncn1CC(O)(c1cccc(Cl)c1Cl)C1(F)CC1 (centres unmarked) [I-438]	2.39^[a]
N#Cc1cncn1CC(O)(CC1CC1)c1ccc(Cl)c(F)c1 (centres unmarked) [I-486]	2.56^[a]
CC(O)(Cn1cncc1C(F)(F)F)c1ccc(Oc2ccc(I)cc2)cc1F (centres unmarked) [I-179]	4.11^[a]
N#Cc1cncn1CC(O)(c1cc(Br)c(F)cc1F)C1(Cl)CC1 (centres unmarked) [I-582]	2.66^[a]
CC(O)(Cn1cncc1F)c1ccc(Oc2ccc(C(F)(F)F)nc2)nc1C(F)(F)F (centres unmarked) [I-290]	2.06^[a]

Same assay, conditions: reversed phase HPLC column; method [a]: LC-UV, acidic range, 0.1% formic acid in water and acetonitrile as eluent (linear gradient from 10% to 95% acetonitrile)

SMILES	chromatographic logP
CCC(=O)c1cncn1CC(=O)c1ccc(Oc2ccc(Br)cc2)cc1C(F)(F)F [IX-139]	3.71
N#Cc1cncn1CC(=O)c1cccc(Cl)c1F [IX-148]	2.02
N#Cc1cncn1CC(=O)c1ccc(Cl)cc1F [IX-147]	1.94
